The subject of test [1] is Bacillus spizizenii. Nature of the test: Antibacterial activity against Bacillus subtilis ATCC 6633 after 18 hrs by microdilution broth method. The format is functional. As to conditions: ATCC 6633, 18 h. A general note: Dilution methods test growth across graded concentrations, often in twofold steps.
Test [2] deals with Enterococcus faecalis. Kind of test: Antibacterial activity against Enterococcus faecalis ATCC 19433 after 18 hrs by microdilution broth method. It counts as functional. The note with it: ATCC 19433, 18 h.
In test [3] the test system is Staphylococcus aureus. Kind of test: Antibacterial activity against Staphylococcus aureus ATCC 25923 after 18 hrs by microdilution broth method. The format is functional. As to conditions: ATCC 25923, 18 h.
The test system of test [4] is Streptococcus pyogenes. Nature of the test: Antibacterial activity against Streptococcus pyogenes ATCC 12344 after 18 hrs by microdilution broth method. The format is functional. As to conditions: ATCC 12344, 18 h.
For test [5], the system named is Acinetobacter baumannii. Kind of test: Antibacterial activity against Acinetobacter baumannii ATCC 17978 after 18 hrs by microdilution broth method. The format is functional. The note with it: ATCC 17978, 18 h.
The subject of test [6] is Klebsiella pneumoniae. Kind of test: Antibacterial activity against Klebsiella pneumoniae ATCC […] after 18 hrs by microdilution broth method. It counts as functional.
The test system of test [7] is Pseudomonas aeruginosa. Kind of test: Antibacterial activity against Pseudomonas aeruginosa ATCC 27853 after 18 hrs by microdilution broth method. The note with it: ATCC 27853, 18 h. It counts as functional.
Test [8] relates to Escherichia coli. Nature of the test: Antibacterial activity against Escherichia coli CCUG after 18 hrs by microdilution broth method.

The structures appear in SMILES notation. Values after ≈ are worked out from the molar mass of the structure shown.

Consider `CN[C@H](CC(C)C)C(=O)N[C@H]1C(=O)N[C@@H](CC(N)=O)C(=O)N[C@H]2C(=O)N[C@H]3C(=O)N[C@H](C(=O)N[C@H](C(=O)O)c4cc(O)cc(O)c4-c4cc3ccc4O)[C@H](O)c3ccc(c(Cl)c3)Oc3cc2cc(c3O[C@@H]2O[C@H](CO)[C@@H](O)[C@H](O)[C@H]2O[C@H]2C[C@](C)(N)[C@H](O)[C@H](C)O2)Oc2ccc(cc2Cl)[C@H]1O` [VANCOMYCIN], for which the figures for the MIC in test [1] and in test [2] were 0.5 µg/mL (≈ 0.345 µM) and 1 µg/mL (≈ 0.69 µM), respectively.
With `N=C(N)NCCCCCCCCN(CCCCCCCCNC(=N)N)C(=O)N(CCCCCCCCNC(=N)NCC1CC1)CCCCCCCCNC(=N)NCC1CC1`, the MIC – broadly, the lowest concentration that inhibits growth of the organism – in test [1] was found to be 2 µg/mL (≈ 2.37 µM); in test [2] it was 8 µg/mL (≈ 9.46 µM); in test [3], 8 µg/mL (≈ 9.46 µM); in test [4], 4 µg/mL (≈ 4.73 µM); in test [5] it was 16 µg/mL (≈ 18.9 µM); in test [6], 4 µg/mL (≈ 4.73 µM). For the same compound, the MIC in test [7] was 16 µg/mL (≈ 18.9 µM); in test [8], 4 µg/mL (≈ 4.73 µM).
With `N=C(NCCCCCCCCN(CCCCCCCCNC(=N)NCC1CC1)C(=O)N(CCCCCCNC(=N)NCC1CC1)CCCCCCNC(=N)NCC1CC1)NCC1CC1`, the MIC in test [1] turned out to be 4 µg/mL (≈ 4.46 µM); in test [2], 8 µg/mL (≈ 8.91 µM); in test [3] it was 2 µg/mL (≈ 2.23 µM); in test [4], 1 µg/mL (≈ 1.11 µM); in test [5] it was 64 µg/mL (≈ 71.3 µM); in test [6], 4 µg/mL (≈ 4.46 µM). Moreover, the MIC in test [7] is 128 µg/mL (≈ 143 µM); in test [8], 4 µg/mL (≈ 4.46 µM).
On to `CNC(=O)NC(=N)NCCCCCCCCN(CCCCCCCCNC(=N)NC(=O)NC)C(=O)N(CCCCCCCCNC(=N)NCC1CC1)CCCCCCCCNC(=N)NCC1CC1`, for which the MIC in test [1] was found to be 2 µg/mL (≈ 2.08 µM); in test [2] it was 4 µg/mL (≈ 4.17 µM); in test [3] it was 2 µg/mL (≈ 2.08 µM); in test [4] it was 2 µg/mL (≈ 2.08 µM); in test [5], 8 µg/mL (≈ 8.34 µM); in test [6], 4 µg/mL (≈ 4.17 µM). Besides, the MIC in test [7] was determined as 16 µg/mL (≈ 16.7 µM); in test [8], 4 µg/mL (≈ 4.17 µM).
Turning to `CCNC(=N)NCCCCCCN(CCCCCCNC(=N)N)C(=O)N(CCCCCCNC(=N)NCC)CCCCCCNC(=N)NCC`, the MIC in test [1] stood at 16 µg/mL (≈ 22.6 µM); in test [2], 64 µg/mL (≈ 90.3 µM); in test [3] it was 32 µg/mL (≈ 45.1 µM); in test [4], 4 µg/mL (≈ 5.64 µM); in test [5], 256 µg/mL (≈ 361 µM); in test [6], 128 µg/mL (≈ 181 µM). Besides, the values for the MIC in test [7] and in test [8] were greater than 256 µg/mL and 64 µg/mL (≈ 90.3 µM), respectively.
Take `N=C(N)NCCCCCCN(CCCCCCNC(=N)NCC1CC1)C(=O)N(CCCCCCNC(=N)NCC1CC1)CCCCCCNC(=N)NCC1CC1`: the MIC was 4 µg/mL (≈ 5.08 µM) in test [1]; 16 µg/mL (≈ 20.3 µM) in test [2]; 4 µg/mL (≈ 5.08 µM) in test [3]; 2 µg/mL (≈ 2.54 µM) in test [4]; 64 µg/mL (≈ 81.3 µM) in test [5]; 16 µg/mL (≈ 20.3 µM) in test [6]. The MIC in test [7] came to 128 µg/mL (≈ 163 µM); in test [8] it was 8 µg/mL (≈ 10.2 µM).
As for `N=C(N)NCCCCCCN(CCCCCCNC(=N)NCC1CC1)C(=O)N(CCCCCCNC(=N)N)CCCCCCNC(=N)NCC1CC1`, the MIC in test [1] turned out to be 4 µg/mL (≈ 5.46 µM); in test [2], 32 µg/mL (≈ 43.6 µM); in test [3], 4 µg/mL (≈ 5.46 µM); in test [4] it was 2 µg/mL (≈ 2.73 µM); in test [5] it was 128 µg/mL (≈ 175 µM); in test [6], 32 µg/mL (≈ 43.6 µM). The MIC in test [7] is 256 µg/mL (≈ 349 µM); in test [8], 16 µg/mL (≈ 21.8 µM).
With `CCCCCCCCCC(=O)N[C@@H](Cc1c[nH]c2ccccc12)C(=O)N[C@H](CC(N)=O)C(=O)N[C@@H](CC(=O)O)C(=O)N[C@@H]1C(=O)NCC(=O)N[C@@H](CCCN)C(=O)N[C@@H](CC(=O)O)C(=O)N[C@H](C)C(=O)N[C@@H](CC(=O)O)C(=O)NCC(=O)N[C@H](CO)C(=O)N[C@@H]([C@H](C)CC(=O)O)C(=O)N[C@@H](CC(=O)c2ccccc2N)C(=O)O[C@@H]1C`, the MIC in test [1] turned out to be 1 µg/mL (≈ 0.617 µM); in test [2], 1 µg/mL (≈ 0.617 µM); in test [3], 0.5 µg/mL (≈ 0.309 µM); in test [4], 0.12 µg/mL (≈ 0.074 µM).
For `N=C(NCCCCCCCCN(CCCCCCCCNC(=N)NCc1ccccc1)C(=O)N(CCCCCCCCNC(=N)NCc1ccccc1)CCCCCCCCNC(=N)NCc1ccccc1)NCc1ccccc1`, the MIC worked out at 4 µg/mL (≈ 3.64 µM) in test [1]; 4 µg/mL (≈ 3.64 µM) in test [2]; 8 µg/mL (≈ 7.29 µM) in test [3]; 1 µg/mL (≈ 0.911 µM) in test [4]; 16 µg/mL (≈ 14.6 µM) in test [5]; 4 µg/mL (≈ 3.64 µM) in test [6]. In addition, the MIC in test [7] was determined as 8 µg/mL (≈ 7.29 µM); in test [8], 4 µg/mL (≈ 3.64 µM).

For the origin of these results see ChEMBL document CHEMBL4308851, “Alkyl-guanidine Compounds as Potent Broad-Spectrum Antibacterial Agents: Chemical Library Extension and Biological Characterization” (J Med Chem, 2018).
